# Reference: the METLIN SMRT retention time set (Domingo-Almenara et al. 2019)
# Assay: gradient 5% acetonitrile 3 min, to 50% in 2 min, to 85% in 15 min, held 3 min, 100 µL/min
# Details: column: Zorbax Extend-C18 2.1 x 50 mm; eluents: water / acetonitrile, 0.1% formic acid
# Outline: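 Standards, all pure, were combined into mixtures of ~100 molecules and run at 100 μL/min on a Zorbax Extend-C18 column (2.1 × 50 mm, 1.8 μm) with water and acetonitrile, each containing 0.1% formic acid. A coupled quadrupole time-of-flight mass spectrometer operated in positive and negative ionization mode. Retention time values come from computationally picked adduct peaks, each inspected manually.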
row,Compound,RP-LC retention time
1,Cc1cccc(OCc2nc(C)c(C(=O)Nc3nc(-c4ccccc4)cs3)s2)c1,1230 s
2,Cc1ccc(NC(=O)N2C[C@@H](F)C[C@H]2C(=O)N2CCc3ccccc3C2)c(C)c1,817 s
3,COc1ccc(-c2noc(Cn3c(=O)n(C(C)C)c(=O)c4ccccc43)n2)cc1OC,1000 s
4,COc1ccc(Cl)cc1NC(=O)c1cnc2c(c1)c(=O)n(C)c(=O)n2-c1ccccc1,1010 s
5,COC(=O)CNC(=O)N1CCCC1c1ccc(OC)cc1 (centres undefined),678 s
6,CN(C)C(=O)c1ccc2c(c1)nc(CN(C)C(=O)Nc1ccc(Cl)cc1)n2C,616 s
7,CN(C(=O)C1CCCN(c2ncnc3c2nc2n3CCCCC2)C1)c1ccccc1Cl (centres undefined),846 s
8,O=C(NCC(=O)N1CCN(c2ccccn2)CC1)c1cncc(Br)c1,576 s
9,COc1ccc(OC)c(S(=O)(=O)Nc2cc(-c3nc4cccnc4s3)ccc2C)c1,888 s
10,O=C(Cc1cccs1)N1CCc2c([nH]c3ccccc23)C1c1ccc(Cl)cc1 (centres undefined),1220 s
11,CCSc1nc2ccc(NS(=O)(=O)c3cccc(Cl)c3)cc2s1,1070 s
12,COc1ccc(Cc2nnc3sc(-c4ccccc4)nn23)cc1,810 s
13,N#Cc1ccc(C(=O)Nc2cnc(-c3cccc(Cl)c3)nc2)cc1,1050 s
14,O=C(NCCc1c[nH]c2ccc(Cl)cc12)c1cc2n(n1)CCCN(Cc1ccc(Cl)cc1)C2=O,998 s
15,CN(C)CCNC(=O)CS(=O)Cc1cnn(-c2ccccc2)c1-n1cccc1 (centres undefined),603 s
16,O=C(CSc1nc2ncccc2[nH]1)Nc1ccccc1C(F)(F)F,649 s
17,CC(C)C(=O)Nc1cccn2nc(C3CCC3)nc12,802 s
18,CC(=O)c1cccc(NC(=O)c2csc3c2CCCC3)c1,996 s
19,C[C@H]([C@H](C)N1CC(=O)NC(=O)C1)N1CC(=O)NC(=O)C1,610 s
20,CCCN1CCCCc2cc(C(=O)NCC(C)C)sc21,1100 s
21,COC(=O)C1=C(NC(=O)c2cccc(F)c2)CCS1,964 s
22,Brc1cccc(-c2nnc(Cc3nc(-c4cccnc4)no3)o2)c1,845 s
23,CCCCN(CC)C(=O)c1cc2c(=O)n3ccccc3nc2n1C,813 s

row,Compound,RP-LC retention time
1,CCN1CCN(c2cc(C)c3cc(NC(=O)COc4ccc(OC)cc4)ccc3n2)CC1,597 s
2,Cc1ccc(-c2ccc3nn(Cc4cccc(Br)c4)c(=O)n3n2)cc1C,1010 s
3,Cc1cc(C)cc(S(=O)(=O)N2CCC(C(=O)NCc3csc(-c4ccccc4)n3)CC2)c1,990 s
4,COc1cc(NC(=O)Cn2cnc3c(sc4nc(-c5ccccc5)ccc43)c2=O)cc(OC)c1,996 s
5,Cc1ccccc1Oc1nccn2c(=O)n(CC(=O)Nc3c(C)cccc3C)nc12,838 s
6,COc1cc(OC)c(NC(=O)Cn2c(=O)n(-c3cccc(C)c3)c(=O)c3c2cc(C)n3C)cc1Cl,871 s
7,O=C1COc2cc(Cl)ccc2N1Cc1nc(-c2ccc(OC(F)(F)F)cc2)no1,1220 s
8,O=C(Nc1cnn(-c2ncc(N3CCCCC3)cn2)c1)c1ccccn1,814 s
9,CC(C)OCCCNC(=O)c1ccc2cnn(Cc3ccc(F)cc3)c2c1,656 s
10,Cc1cc(-c2nnc(-c3ccccc3)o2)c(C)n1CC(=O)Nc1cc(F)ccc1F,994 s
11,COc1cccc(-c2noc(Cn3ccn(Cc4ccc(Cl)cc4)c(=O)c3=O)n2)c1,895 s
12,N=C(CC(O)COc1ccccc1-c1ccccc1)N1CCCCC1 (centres undefined),793 s
13,CC1=C(c2ccc(C(C)C)cc2)S(=O)(=O)N=C1N1CCC(C(=O)NCCN2CCCC2)CC1,693 s
14,Cc1nn(-c2ccc(-c3ccccc3)nn2)c(C)c1S(=O)(=O)NCc1ccccc1,1030 s
15,COc1cc(Nc2nc(-c3nnn(-c4cc(Cl)ccc4OC)c3C)ns2)cc(OC)c1,1070 s
16,COc1cc(OC)cc(-c2noc(-c3cn(C)c4ccc(C)cc4c3=O)n2)c1,894 s
17,CCn1c(=O)c2ccccc2n(Cc2nc(-c3ccc(Br)cc3)no2)c1=O,1110 s
18,CCCNC(=O)c1ncn2c1C(=O)N(C1CC1)C(C)(C(=O)NCc1cccc(C)c1)C2 (centres undefined),717 s
19,CC(=O)Oc1cc2c(C(=O)NCc3ccccn3)c(C)oc2c2ccccc12,638 s
20,CCn1c(=O)sc2cc(S(=O)(=O)N3CCC(C(=O)NCc4cccc(OC)c4)CC3)ccc21,1000 s
21,CCOC(=O)c1c(C)[nH]c(NC(=O)Nc2ccccc2C)c1C,912 s
22,COC(=O)c1cc(S(=O)(=O)N2CCCC2C(=O)Nc2ccc(C#N)cc2)cn1C (centres undefined),841 s
23,Cc1ccc(-c2noc(-c3cccn4c(=O)n(Cc5ccc6c(c5)OCO6)nc34)n2)cc1,1010 s

row,Compound,RP-LC retention time
1,Cc1ccc(CN(C(=O)C(C)Oc2cccc(C)c2C)C2CCS(=O)(=O)C2)o1 (centres undefined),977 s
2,CCCCOc1ccc(CNC(=O)CCc2ccc3nc(CC)[nH]c3c2)cc1,683 s
3,CCCNC(=O)C(=O)NCc1n[nH]c(=O)c2ccccc12,627 s
4,Cn1cc(C2=CCN(C(=O)Cc3ccccc3F)CC2)c2cccnc21,855 s
5,CCOC(=O)c1sc2nc(NC(=O)Cc3ccccc3)sc2c1C,1020 s
6,CCc1noc(NC(C)=O)c1-c1ccc(OC)c(S(=O)(=O)Nc2cc(Cl)ccc2OC)c1,876 s
7,Cc1oc(C2CCN(C(=O)Nc3ccc4c(c3)CCC4)CC2)nc1C(=O)N(C)C,766 s
8,CCCCS(=O)(=O)N1CC=C(c2cn(C)c3ncccc23)CC1,879 s
9,CCCNC(=O)CCc1ccc2nc(-c3ccccc3)[nH]c2c1,593 s
10,COc1ccccc1-c1nc(Cc2noc(-c3cccc(F)c3)n2)c(C)o1,1080 s
11,Cc1nc(CC(=O)NCc2ccc(F)cc2F)sc1C(=O)NC1CC1,693 s
12,Cn1nccc1-c1cccc(-c2noc(-c3ccc(F)cc3)n2)c1,915 s
13,CCC(=O)Nc1ccc(OCc2cc(C(=O)NC3CCC(C)CC3)no2)cc1 (centres undefined),601 s
14,CCn1ncn2cc(S(=O)(=O)Nc3ccc(C)cc3C)cc2c1=O,937 s
15,O=C(NCc1cccc(Br)c1)C(=O)c1ccc[nH]1,874 s
16,CCC(C)C(=O)N1CCCN(C2=NS(=O)(=O)C(c3ccccc3)=C2C)CC1 (centres undefined),777 s
17,Clc1nc2nc3n(c2nc1Cl)CCC3,761 s
18,Cc1cc(C)c2sc(NC(=O)C3=COCCO3)nc2c1,895 s
19,Cc1ccc(Nc2cc(-n3ccnc3)ncn2)cc1,651 s
20,CCCN1C(=O)c2cc(S(=O)(=O)Nc3ccc(F)cc3)ccc2Oc2cccnc21,1060 s
21,O=C(c1ccsc1)N1CC(F)(F)C[C@H]1COc1ccc2c(c1)CCC2,1150 s
22,CCOC(=O)c1c(C)[nH]c(C(=O)N2CCCC(C(=O)NCCN3CCOCC3)C2)c1C (centres undefined),593 s
23,N#Cc1cccc(S(=O)(=O)N2CCC(c3nnc(C(=O)Nc4ccc5c(c4)OCO5)s3)CC2)c1,951 s

row,Compound,RP-LC retention time
1,CN(C)S(=O)(=O)c1ccc(-c2nnc(C(=O)NCc3ccccc3Cl)o2)cc1,894 s
2,Cc1ccc(CN2CCn3c(nn(C)c3=O)C2)cc1C,662 s
3,O=C(NCc1csc(C2CCN(C(=O)Cc3ccc(Cl)cc3)CC2)n1)C1CCC1,784 s
4,CCc1ccc(CNC(=O)C2CCN(c3cnc(N4CCOCC4)nc3)CC2)cc1,786 s
5,COC(=O)c1ccc2c(=O)n(CCc3ccccc3)c(N3CCCC3)nc2c1,1210 s
6,CC(=O)N(Cc1nn(C)c2c1CN(S(=O)(=O)Cc1ccccc1Cl)CC2)c1ccccc1,835 s
7,COc1ccc(NC(=O)CSc2nnc3c4sc(N5CCCC5)nc4ncn23)cc1Cl,798 s
8,CCc1nc(N)n(CC(=O)NCc2ccc(F)cc2F)c(=O)c1C,632 s
9,COc1ccc(-c2noc(C3CCCN3C(=O)C3CCC3)n2)cc1 (centres undefined),899 s
10,CCN1CCN(CCCNC(=O)CCCN2C(=O)COc3ccc(C)cc32)CC1,585 s
11,COc1ccccc1NC(=O)C1CCCN(c2nc3ccccc3nc2OC)C1 (centres undefined),1160 s
12,CCN(Cc1ccccc1)C(=O)Cn1nc(C)c2sc(-c3ccccc3)nc2c1=O,1000 s
13,O=C(C1CC1)N1CCc2sc(S(=O)(=O)NCc3ccccc3Cl)cc2C1,855 s
14,COc1cccc(S(=O)(=O)N2CCC(c3nc(C(=O)N(C)C)c(C)o3)CC2)c1,794 s
15,COc1cccc(-c2nc(C3CCN(S(=O)(=O)c4cccc(F)c4)CC3)no2)c1,1110 s
16,Fc1ccc(CN2CCc3nc(N4CCOCC4)ncc3C2)cc1,608 s
17,O=C1c2cccc([N+](=O)[O-])c2C(=O)N1c1nc(-c2ccccc2)cs1,958 s
18,O=C(Cc1cccc(F)c1)N1CCC2(C1)C(=O)Nc1ccccc12 (centres undefined),713 s
19,COc1cc(OC)cc(-c2nc(C3CC(=O)N(c4ccc(F)cc4)C3)no2)c1 (centres undefined),977 s
20,CN(C)c1ccc2c(c1)CN(C(=O)C1CCC1)CCO2,590 s
